Assay type in all cases: biochemical
Holding throughout (settings): ATP equal to KM

Test [1] deals with TEK (Tie2) (Homo sapiens, UniProt Q02763). Description: Kinase panel profiling: TEK.
Test [2] addresses T1, MUSK (Homo sapiens, UniProt O15146).
T1 construct: purchased Thermo Fisher Scientific (Invitrogen) SelectScreen (Z'-LYTE)
T1 sequence (O15146 24-869): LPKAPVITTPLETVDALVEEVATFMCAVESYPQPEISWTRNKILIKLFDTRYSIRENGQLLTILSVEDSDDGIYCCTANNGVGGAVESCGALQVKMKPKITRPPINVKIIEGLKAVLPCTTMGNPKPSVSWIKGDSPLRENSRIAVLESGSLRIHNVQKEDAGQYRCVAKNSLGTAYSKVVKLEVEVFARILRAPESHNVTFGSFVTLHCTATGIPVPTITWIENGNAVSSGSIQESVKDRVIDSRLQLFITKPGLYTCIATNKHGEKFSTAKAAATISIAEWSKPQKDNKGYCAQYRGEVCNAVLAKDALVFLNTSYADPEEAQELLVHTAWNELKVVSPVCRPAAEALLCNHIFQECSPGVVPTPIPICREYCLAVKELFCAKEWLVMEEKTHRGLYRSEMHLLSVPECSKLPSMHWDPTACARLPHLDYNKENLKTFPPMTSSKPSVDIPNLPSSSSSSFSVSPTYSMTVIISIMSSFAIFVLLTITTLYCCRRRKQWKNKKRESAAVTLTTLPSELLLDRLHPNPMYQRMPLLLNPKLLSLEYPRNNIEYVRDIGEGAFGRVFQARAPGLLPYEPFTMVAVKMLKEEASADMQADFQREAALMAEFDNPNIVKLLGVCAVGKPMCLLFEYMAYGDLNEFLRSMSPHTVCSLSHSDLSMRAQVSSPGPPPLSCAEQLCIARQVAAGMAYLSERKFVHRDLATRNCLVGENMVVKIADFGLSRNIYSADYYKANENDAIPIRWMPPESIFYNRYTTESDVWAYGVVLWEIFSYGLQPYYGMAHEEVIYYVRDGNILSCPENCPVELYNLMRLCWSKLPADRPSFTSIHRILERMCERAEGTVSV
Description: Kinase panel profiling: MUSK.

Test [3] has as its target T2, FER (Homo sapiens, UniProt P16591).
T2 construct: purchased Thermo Fisher Scientific (Invitrogen) SelectScreen (Z'-LYTE)
Description: Kinase panel profiling: FER.

For test [4], the target named is T3, CSF1R (FMS) (Homo sapiens, UniProt P07333).
T3 construct: purchased Thermo Fisher Scientific (Invitrogen) SelectScreen (Z'-LYTE)
Description: Kinase panel profiling: CSF1R.

The mark [5] stands for this setting: 1000 nM test concentration, read-out: Average inhibition (%).
[6] abbreviates: 1000 nM, first data point, read-out: Inhibition (%).
Where [7] appears, read: 1000 nM, second data point, read-out: Inhibition (%).

Read-outs that look alike come from different tables or passages of the source.

For one compound, inhibition results are on record in article PMC12196347, “Evaluating Triazole-Substituted Pyrrolopyrimidines as CSF1R Inhibitors” (Molecules, 2025).

Sequence of TEK (Tie2) (Q02763 23-1124): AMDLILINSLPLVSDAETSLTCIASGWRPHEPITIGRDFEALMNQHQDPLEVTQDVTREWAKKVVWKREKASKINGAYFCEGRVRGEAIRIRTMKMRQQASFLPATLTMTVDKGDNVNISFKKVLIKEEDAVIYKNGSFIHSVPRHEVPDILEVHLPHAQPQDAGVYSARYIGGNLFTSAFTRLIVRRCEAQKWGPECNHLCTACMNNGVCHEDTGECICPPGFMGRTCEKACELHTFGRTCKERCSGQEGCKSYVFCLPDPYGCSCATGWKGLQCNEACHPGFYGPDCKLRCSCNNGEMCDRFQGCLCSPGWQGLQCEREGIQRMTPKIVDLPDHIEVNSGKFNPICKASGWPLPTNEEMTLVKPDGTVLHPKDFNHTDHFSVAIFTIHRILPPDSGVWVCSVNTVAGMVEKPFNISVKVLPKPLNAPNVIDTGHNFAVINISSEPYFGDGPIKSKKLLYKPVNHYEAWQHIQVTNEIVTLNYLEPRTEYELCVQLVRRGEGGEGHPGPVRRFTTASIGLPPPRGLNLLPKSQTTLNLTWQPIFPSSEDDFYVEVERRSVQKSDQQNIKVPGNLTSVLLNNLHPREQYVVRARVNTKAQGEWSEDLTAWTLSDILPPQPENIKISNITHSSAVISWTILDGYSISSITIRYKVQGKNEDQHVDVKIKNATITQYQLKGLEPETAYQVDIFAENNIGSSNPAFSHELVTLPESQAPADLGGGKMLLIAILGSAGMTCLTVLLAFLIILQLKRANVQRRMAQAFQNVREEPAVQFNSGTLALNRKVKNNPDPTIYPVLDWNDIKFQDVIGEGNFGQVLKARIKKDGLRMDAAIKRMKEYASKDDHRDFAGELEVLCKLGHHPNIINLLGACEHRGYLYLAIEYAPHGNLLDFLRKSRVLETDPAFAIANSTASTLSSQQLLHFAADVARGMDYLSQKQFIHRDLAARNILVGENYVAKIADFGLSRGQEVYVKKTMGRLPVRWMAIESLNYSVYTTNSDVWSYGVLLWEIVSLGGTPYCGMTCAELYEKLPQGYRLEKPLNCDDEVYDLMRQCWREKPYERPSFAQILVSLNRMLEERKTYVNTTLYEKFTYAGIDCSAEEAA
T2 sequence (P16591 whole entry): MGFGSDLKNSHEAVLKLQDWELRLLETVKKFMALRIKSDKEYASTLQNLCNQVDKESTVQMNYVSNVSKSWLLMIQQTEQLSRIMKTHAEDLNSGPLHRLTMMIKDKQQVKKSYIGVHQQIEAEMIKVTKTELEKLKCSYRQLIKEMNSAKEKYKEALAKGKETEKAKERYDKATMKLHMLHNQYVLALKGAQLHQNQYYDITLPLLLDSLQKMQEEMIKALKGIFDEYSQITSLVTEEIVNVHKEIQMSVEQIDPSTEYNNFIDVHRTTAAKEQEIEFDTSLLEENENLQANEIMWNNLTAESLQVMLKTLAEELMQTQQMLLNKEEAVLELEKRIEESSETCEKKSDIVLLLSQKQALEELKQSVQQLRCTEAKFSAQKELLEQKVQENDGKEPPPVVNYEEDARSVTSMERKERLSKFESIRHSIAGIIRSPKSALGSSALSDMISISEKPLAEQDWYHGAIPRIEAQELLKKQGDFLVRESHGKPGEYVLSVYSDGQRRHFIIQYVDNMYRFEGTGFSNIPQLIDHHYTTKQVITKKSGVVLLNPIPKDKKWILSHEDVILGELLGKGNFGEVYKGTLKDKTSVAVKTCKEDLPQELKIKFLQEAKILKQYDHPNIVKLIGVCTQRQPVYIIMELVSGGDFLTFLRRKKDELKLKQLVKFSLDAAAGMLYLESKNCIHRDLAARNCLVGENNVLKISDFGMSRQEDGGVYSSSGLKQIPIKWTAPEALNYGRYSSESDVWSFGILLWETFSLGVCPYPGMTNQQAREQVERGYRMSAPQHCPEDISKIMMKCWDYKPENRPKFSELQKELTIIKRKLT
T3 sequence (P07333 20-972): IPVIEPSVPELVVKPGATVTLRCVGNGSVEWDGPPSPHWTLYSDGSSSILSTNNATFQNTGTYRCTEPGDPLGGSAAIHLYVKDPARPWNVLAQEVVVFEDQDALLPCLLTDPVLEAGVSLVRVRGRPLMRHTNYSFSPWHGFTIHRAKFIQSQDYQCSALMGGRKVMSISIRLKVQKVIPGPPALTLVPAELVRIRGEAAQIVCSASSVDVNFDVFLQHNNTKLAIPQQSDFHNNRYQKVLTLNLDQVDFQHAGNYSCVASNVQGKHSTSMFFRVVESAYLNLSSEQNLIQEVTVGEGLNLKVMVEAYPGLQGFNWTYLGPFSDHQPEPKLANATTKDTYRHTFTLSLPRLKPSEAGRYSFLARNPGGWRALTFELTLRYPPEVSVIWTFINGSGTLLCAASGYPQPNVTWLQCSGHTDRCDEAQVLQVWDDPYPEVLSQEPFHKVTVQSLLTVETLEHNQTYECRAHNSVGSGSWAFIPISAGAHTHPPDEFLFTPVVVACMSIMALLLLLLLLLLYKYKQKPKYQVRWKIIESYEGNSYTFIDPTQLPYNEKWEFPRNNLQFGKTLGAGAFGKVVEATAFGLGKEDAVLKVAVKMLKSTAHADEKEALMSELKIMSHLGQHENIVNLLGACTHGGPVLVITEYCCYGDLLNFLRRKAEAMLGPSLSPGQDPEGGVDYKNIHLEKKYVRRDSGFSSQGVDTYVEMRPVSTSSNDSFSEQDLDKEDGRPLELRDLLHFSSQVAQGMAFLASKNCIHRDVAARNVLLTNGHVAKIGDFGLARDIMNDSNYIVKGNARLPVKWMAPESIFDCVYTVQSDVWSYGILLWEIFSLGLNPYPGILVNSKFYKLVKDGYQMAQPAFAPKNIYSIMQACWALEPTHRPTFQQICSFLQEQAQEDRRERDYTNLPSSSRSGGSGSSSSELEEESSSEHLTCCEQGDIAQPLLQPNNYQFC

Take `Cc1cccc(CN(C)c2ncnc3[nH]c(-c4cn(Cc5cccnc5)nn4)cc23)c1` [Compound 27a, N-Methyl-N-(3-methylbenzyl)-6-(1-(pyridin-3-ylmethyl)-1H-1,2,3-triazol-4-yl)-7H-pyrrolo[2,3-d]pyrimidin-4-amine]: the inhibition – broadly, the change of the read-out against control, counted positive when it falls – at 1 µM in test [1] (setting [5]) came to 42%; in test [1] (setting [6]), 44%; in test [1] (setting [7]) it was 40%; in test [2] (setting [5]), 72%; in test [2] (setting [6]) it was 73%; in test [2] (setting [7]) it was 72%. Also, the inhibition at 1 µM in test [3] (setting [5]) was determined as 15%; in test [3] (setting [6]) it was 16%; in test [3] (setting [7]), 14%; in test [4] (setting [5]) it was 99%; in test [4] (setting [6]) it was 99%.
